14 compounds from US20100152188A1, “Novel Heterocyclic Compounds” (priority 2005, published 2010) can be followed below.

One assay concerns NCIH460. Kind of assay: Anti-cancer screen (MTT), NCIH460. It is filed as cell-based. The following applies: Homo sapiens, NCI-H460, 48 hours with compound, tested at 0.01-100 µM. As for the experimental part: (§1) Experimental drugs are screened for anti-cancer activity in three cell lines for their GI50, TGI and LC50 values (using five concentrations for each compound). The cell lines are maintained in DMEM containing 10% fetal bovine serum. 96 well micro titer plates are inoculated with cells in 100 µL for 24 hours at 37° C., 5% CO2, 95% air and 100% relative humidity. 5000 HCT 116 cells/well, 5000 NCIH 460 cells/well and 5000 U251 cells/well are plated. A separate plate with these cell lines is also inoculated to determine cell viability before the addition of the compounds (T0).
(§2) Following 24-hour incubation, experimental drugs are added to the 96 well plates. Each plate contains one of the above cell lines and the following in triplicate: five different concentrations (0.01, 0.1, 1, 10 and 100 µM) of four different compounds, appropriate dilutions of a cytotoxic standard and control (untreated) wells. Compounds are dissolved in DMSO to make 20 mM stock solutions on the day of drug addition and frozen at −20° C. Serial dilutions of these 20 mM stock solutions are made in complete growth medium such that 100 µL of these drug solutions in medium, of final concentrations equaling 0.01, 0.1, 1, 10 and 100 µM can be added to the cells in triplicate. Standard drugs whose anti-cancer activity has been well documented and which are regularly used are doxorubicin and SAHA.
(§3) For T0 measurement, 24 hours after seeding the cells, 10 µL of 3-(4,5-Dimethyl-2-thiazolyl)-2,5-diphenyl-2H-tetrazolium (MTT) solution per well is added and incubation carried out for 3 hours at 37° C., 5% CO2, 95% air and 100% relative humidity, protected from light. Cells incubated with compounds for 48 hours are treated similarly except with the addition of 20 µl MTT solution per well and a subsequent incubation under the same conditions. After 3 hours of MTT incubation, well contents are aspirated carefully followed by addition of 150 µL DMSO per well. Plates are agitated to ensure solution of the formazan crystals in DMSO and absorbance read at 570 nm.
(§4) Percent growth is calculated for each compound's concentration relative to the control and zero measurement wells (T0; viability right before compound addition). If a test well's O.D. value is greater than the T0 measurement for that cell line
(§5) %Growth=(test−zero)/(control−zero)×100
(§6) If a test well's O.D. value is lower than the T0 measurement for that cell line, then,
(§7) %Growth=(test−zero)/zero×100

For another assay, the system named is HCT116. Kind of assay: Anti-cancer screen (MTT), HCT116. To be noted: Homo sapiens, HCT-116, 48 hours with compound, tested at 0.01-100 µM. The assay is classed as cell-based. The method, then:
as §1, §2, §3, §4, §5, §6, §7

In another assay the test system is MDAMB-231/U 251. Kind of assay: Anti-cancer screen (MTT), MDAMB-231/U 251. It is filed as cell-based. The following applies: for CC50: 48 h, read-out: MDAMB-231/U 251 LC50; for GI50 / IC (TGI): 48 hours with compound, MTT, tested at 0.01-100 µM. The method, then: as §1, §2, §3, §4, §5, §6, §7
The subject of assay [1] is NCIH460, HCT116, MDAMB-231/U 251. Kind of assay: Anti-cancer screen, mean GI50 over the cell lines. It is filed as cell-based. The following applies: in µM. The method, then: as §1, §2, §3, §4
The subject of another assay is HDAC. Kind of assay: HDAC inhibition. It is filed as biochemical. The following applies: for HDAC Inhibition 1 μM: compound at 1 μM; for HDAC Inhibition 10 μM: compound at 10 μM.

With `O=C(Cc1csc(NC(=O)OCc2cccnc2)n1)Nc1nc2ccccc2s1` [Example 11, Pyridin-3-ylmethyl{4-[2-(1,3-benzothiazol-2-ylamino)-2-oxoethyl]-1,3-thiazol-2-yl}carbamate], in the assay with NCIH460, the GI50 was 7 µM, the IC (TGI) is over 100 µM and the LC50 is over 100 µM. For the same compound, in the assay on HCT116, the GI50 is over 100 µM, the IC (TGI) was over 100 µM and the LC50 (concentration giving 50% net cell kill relative to T0) was over 100 µM. In addition, in the assay on MDAMB-231/U 251, the CC50 was over 100 µM, the GI50 was determined as 5 µM and the IC (TGI) amounted to 10 µM. The “Mean GI50” value in assay [1] is 6.
Turning to `O=C(Nc1nc(CC(=O)N2CCC(N3CCCCC3)CC2)cs1)OCc1cccnc1` [Example 13, Pyridin-3-ylmethyl{4-[2-(1,4′-bipiperidin-1′-yl)-2-oxoethyl]-1,3-thiazol-2-yl}carbamate], in the assay with NCIH460, the GI50 was determined as 2.8 µM, the IC (TGI) was found to be 25 µM and the LC50 is over 100 µM. Also, in the assay on HCT116, the GI50 was over 100 µM, the IC (TGI) is over 100 µM and the LC50 (concentration giving 50% net cell kill relative to T0) was over 100 µM. In addition, in the assay on MDAMB-231/U 251, the CC50 was over 100 µM, the 50% growth inhibitory concentration (GI50) was found to be 0.09 µM and the IC (TGI) is over 100 µM. For the same compound, the “Mean GI50” value in assay [1] is over 100.
In the case of `CON(C)C(=O)Cc1csc(NC(=O)OCc2cccnc2)n1` [Example 14, Pyridin-3-ylmethyl(4-{2-[methoxy(methyl)amino]-2-oxoethyl}-1,3-thiazol-2-yl)carbamate], in the assay with NCIH460, the GI50 was found to be 10 µM, the IC (TGI) is over 100 µM and the LC50 was over 100 µM. Further, in the assay with HCT116, the GI50 is 80 µM, the IC (TGI) is over 100 µM and the LC50 (concentration giving 50% net cell kill relative to T0) was over 100 µM. Moreover, in the assay on MDAMB-231/U 251, the CC50 is over 100 µM, the GI50 is over 100 µM and the IC (TGI) is over 100 µM. Moreover, in assay [1], the “Mean GI50” value worked out at 45.
Regarding `CNC(=O)Cc1csc(NC(=O)OCc2cccnc2)n1` [Example 15, Pyridin-3-ylmethyl{4-[2-(methylamino)-2-oxoethyl]-1,3-thiazol-2-yl}carbamate], in the assay with NCIH460, the GI50 was found to be 60 µM, the IC (TGI) is over 100 µM and the LC50 was over 100 µM. In the assay on HCT116, the GI50 was found to be 100 µM, the IC (TGI) was over 100 µM and the LC50 (concentration giving 50% net cell kill relative to T0) was over 100 µM. In the assay on MDAMB-231/U 251, the CC50 is over 100 µM, the GI50 amounted to 60 µM and the IC (TGI) is over 100 µM. In addition, the “Mean GI50” value in assay [1] came to 73.3.
With `CN(C)C(=O)Cc1csc(NC(=O)OCc2cccnc2)n1` [Example 16, Pyridin-3-ylmethyl{4-[2-(dimethylamino)-2-oxoethyl]-1,3-thiazol-2-yl}carbamate], in the assay on NCIH460, the GI50 was 8 µM, the IC (TGI) was over 100 µM and the LC50 is over 100 µM. Besides, in the assay with HCT116, the GI50 is over 100 µM, the IC (TGI) is over 100 µM and the LC50 (concentration giving 50% net cell kill relative to T0) is over 100 µM. In the assay on MDAMB-231/U 251, the CC50 was over 100 µM, the GI50 is 20 µM and the IC (TGI) was over 100 µM. In addition, the “Mean GI50” value in assay [1] is listed as 14.
Turning to `Nc1ccccc1NC(=O)Cc1csc(NC(=O)OCc2c(F)c(F)c(F)c(F)c2F)n1` [Example 22, Pentafluorobenzyl(4-{2-[(2-aminophenyl)amino]-2-oxoethyl}-1,3-thiazol-2-yl)carbamate], in the assay with NCIH460, the GI50 was 48 µM, the IC (TGI) was over 100 µM and the LC50 is over 100 µM. Also, in the assay on HCT116, the GI50 amounted to 53 µM, the IC (TGI) is over 100 µM and the LC50 (concentration giving 50% net cell kill relative to T0) is over 100 µM. Further, in the assay with MDAMB-231/U 251, the CC50 was over 100 µM, the concentration for 50% growth inhibition (GI50) turned out to be 10 µM and the IC (TGI) is over 100 µM. For the same compound, the “Mean GI50” value in assay [1] was 37.
Take `O=C(NCc1ccc(C(=O)NO)cc1)OCc1c(F)c(F)c(F)c(F)c1F` [Example 29, Pentafluorobenzyl{4-[(hydroxyamino)carbonyl]benzyl}carbamate]: in the assay on NCIH460, the GI50 is 0.4 µM, the IC (TGI) was determined as 22.5 µM and the LC50 is 82.5 µM. Further, in the assay with HCT116, the GI50 was 0.98 µM, the IC (TGI) came to 3.5 µM and the LC50 (concentration giving 50% net cell kill relative to T0) stood at 48 µM. In addition, in the assay on MDAMB-231/U 251, the CC50 was over 100 µM, the 50% growth inhibitory concentration (GI50) came to 3.1 µM and the IC (TGI) is over 100 µM. The “Mean GI50” value in assay [1] is on record as 1.5.
For the compound `O=C(NCc1ccc(C(=O)NO)cc1)OCc1ccc(C(F)(F)F)cc1` [Example 35, 4-(Trifluoromethyl)benzyl{4-[(hydroxyamino)carbonyl]benzyl}carbamate], in the assay on NCIH460, the GI50 was found to be 20 µM, the IC (TGI) is 50 µM and the LC50 amounted to 80 µM. For the same compound, in the assay on HCT116, the GI50 was 5 µM, the IC (TGI) is 12 µM and the LC50 (concentration giving 50% net cell kill relative to T0) amounted to 60 µM. Also, in the assay with MDAMB-231/U 251, the CC50 came to 70 µM, the GI50 stood at 0.05 µM and the IC (TGI) was 15 µM. Also, the “Mean GI50” value in assay [1] came to 8.4.
As to `COc1cc(COC(=O)NCc2ccc(C(=O)NO)cc2)cc(OC)c1OC` [Example 36, 3,4,5-Trimethoxybenzyl{4-[(hydroxyamino)carbonyl]benzyl}carbamate], in the assay with NCIH460, the GI50 was found to be 68 µM, the IC (TGI) was over 100 µM and the LC50 is over 100 µM. In addition, in the assay with HCT116, the GI50 stood at 35 µM, the IC (TGI) was 60 µM and the LC50 (concentration giving 50% net cell kill relative to T0) was determined as 85 µM. In the assay with MDAMB-231/U 251, the CC50 came to 85 µM, the GI50 came to 5.5 µM and the IC (TGI) came to 10 µM. Also, the “Mean GI50” value in assay [1] is given as 36.2.
Consider `Nc1ccccc1NC(=O)c1ccc(CNC(=O)OCc2ccsc2)cc1` [Example 49, 3-Thienylmethyl(4-{[(2-aminophenyl)amino]carbonyl}benzyl)carbamate], for which, in the assay on NCIH460, the GI50 amounted to 42 µM, the IC (TGI) amounted to 96 µM and the LC50 is over 100 µM. In the assay on HCT116, the GI50 was found to be 2 µM, the IC (TGI) is 59 µM and the LC50 (concentration giving 50% net cell kill relative to T0) was over 100 µM. Further, in the assay on MDAMB-231/U 251, the CC50 amounted to 82 µM, the GI50 amounted to 31 µM and the IC (TGI) came to 56 µM. In the assay on HDAC, the “HDAC Inhibition 1 μM” value stood at 10.15 and the “HDAC Inhibition 10 μM” value is 18.78.
For `CN1CCN(C(=O)c2ccc(CNC(=O)OCc3ccsc3)cc2)CC1` [Example 50, 3-Thienylmethyl{4-[(4-methylpiperazin-1-yl)carbonyl]benzyl}carbamate], in the assay with NCIH460, the GI50 is 64 µM, the IC (TGI) was over 100 µM and the LC50 is over 100 µM. In addition, in the assay on HCT116, the GI50 was 64 µM, the IC (TGI) was over 100 µM and the LC50 (concentration giving 50% net cell kill relative to T0) was over 100 µM. In addition, in the assay on MDAMB-231/U 251, the CC50 is over 100 µM, the GI50 came to 65 µM and the IC (TGI) was over 100 µM. Also, in the assay with HDAC, the “HDAC Inhibition 1 μM” value is −3.95 and the “HDAC Inhibition 10 μM” value came out at 1.45.
`O=C(NCc1ccc(C(=O)N2CCOCC2)cc1)OCc1ccsc1` [Example 51, 3-Thienylmethyl[4-(morpholin-4-ylcarbonyl)benzyl]carbamate]: in the assay on NCIH460, the GI50 turned out to be 94.5 µM, the IC (TGI) is over 100 µM and the LC50 is over 100 µM. In the assay with HCT116, the GI50 is over 100 µM, the IC (TGI) was over 100 µM and the LC50 (concentration giving 50% net cell kill relative to T0) is over 100 µM. In addition, in the assay on MDAMB-231/U 251, the CC50 is over 100 µM, the GI50 is over 100 µM and the IC (TGI) is over 100 µM. Further, in the assay on HDAC, the “HDAC Inhibition 1 μM” value is recorded as 3.20 and the “HDAC Inhibition 10 μM” value was 3.18.
Take `CS(=O)(=O)Oc1ccc(NC(=O)c2ccc(CNC(=O)OCc3cccs3)cc2)cc1` [Example 70, 4-[(4-{[(2-thienylmethyloxycarbonyl)amino]methyl}benzoyl)amino]phenylmethanesulfonate]: the “Mean GI50” value in assay [1] was 19.65.
With `CCOC(=O)CN(OC)C(=O)c1ccc(CNC(=O)OCc2cccs2)cc1` [Example 109, ethyl{methoxy[4-({[(2-thienylmethoxy)carbonyl]amino}-methyl)benzoyl]amino}acetate], in the assay on HDAC, the “HDAC Inhibition 1 μM” value is 8.84 and the “HDAC Inhibition 10 μM” value worked out at 15.41.
